Assays:
Cellular ERK5 Activity = molecular target: T1, Cellular ERK5 Activity (Homo sapiens, UniProt Q13164); test: Inhibition of Cellular ERK5 Activity (cell-based assay, MEF2 luciferase reporter in SN12C cells); details: renal cancer cell line SN12C, doxycycline-induced MEK5DD, 0.3-10000 nM, mean where repeated
T1 construct: MEF2-response-element luciferase reporter (pGreenFire1)
Experimental: (§1) Two assays were performed to assess the ERK5 inhibitory activity of compounds of the Examples, a cell-based assay and a cell-free biochemical assay. Where repeat measurements were taken, the value reported is a mean average.
Inhibition of Cellular ERK5 Activity
The renal cancer cell line SN12C was transduced by a lentivirus pGreenFire1 MEF2 EF1 Neo (ref TR030VA-N) from SBI using standard infection protocol. pGreenFire1 MEF2 EF1 Neo allows the expression of luciferase gene under the control of minimal promoter with MEF2 transcriptional response elements. Cells harboring the reporter construct were selected by geneticin treatment. The selected cells were then transposed by a piggyback based plasmid pCM4007 allowing the expression of constitutively activated MEK5DD under control of TREG3 promoter, a doxycycline regulated promoter. Transposed cells were selected by puromycin treatment. Upon doxycycline treatment (1 μg/ml) MEK5DD was expressed. MEK5DD activates ERK5 that phosphorylates MEF2C protein. Activated MEF2C protein can bind to its transcriptional response elements. Then the luciferase is expressed. In a 96-well plate (96F nuncleon ref137101 thermofisher), 50,000 cells were inoculated in 142.5 μl of RPMI medium containing 10% fetal calf serum, 1% glutamine, and 1 μg/ml doxycycline. After 24 hours, compounds were added in 7.5 μl culture medium (with 2% DMSO to give a final concentration of 0.1%) in order to obtain the desired concentration (0.3-10000 nM). The luciferase activity was measured using the Kit Bright Glo Luminescent Cell Assay Cat E2610 (Promega) according to the manufacturer's protocol. Luminescence was determined using 0.2 second reading/well using a Tecan SPARK. IC50 values were calculated using XLFIT5 for Microsoft Excel using method 205. The IC50 values represent the concentration of compound which inhibits the measurable luminescence signal by 50% as compared to DMSO-treated control cells.

[1] = molecular target: T2, activated catalytic domain of protein ERK5 (Homo sapiens, UniProt Q13164); test: Cell-Free Assay of ERK5 Inhibition (Time-Resolved Forster Resonance Energy Transfer); format: biochemical; details: ERK5 4 nM, 1 mM ATP, 1 μM biotinylated 4EBP1 peptide, 30 min at 37° C.; TR-FRET; mean where repeated
T2 construct: purchased CarnaBiosciences #04-146
T2 sequence (Q13164 55-347 limits assumed): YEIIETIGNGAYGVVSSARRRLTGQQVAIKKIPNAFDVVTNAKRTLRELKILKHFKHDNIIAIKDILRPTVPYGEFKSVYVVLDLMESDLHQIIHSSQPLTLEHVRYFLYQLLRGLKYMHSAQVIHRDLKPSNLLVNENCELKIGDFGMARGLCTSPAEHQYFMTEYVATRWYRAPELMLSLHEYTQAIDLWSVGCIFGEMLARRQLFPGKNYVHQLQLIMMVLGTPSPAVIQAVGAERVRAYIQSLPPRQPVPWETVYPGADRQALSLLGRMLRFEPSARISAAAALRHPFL
Experimental: as §1
Cell-Free Assay of ERK5 Inhibition
An assay was performed to measure the capacity of each compound to inhibit ERK5 enzymatic activity. Compound potency was evaluated by Time-Resolved Forster Resonance Energy Transfer (FRET system). The activated catalytic domain of protein ERK5 (CarnaBiosciences #04-146) was mixed at 4 nM with varying concentrations of compound and incubated for 30 minutes at room temperature. A mixture of 1 mM ATP and 1 μM biotinylated synthetic peptide was added (Biosyntan GmbH). This synthetic peptide represents amino acids 30-52 of Eukaryotic translation initiation factor 4E-binding protein 1 (see, e.g., the sequence under accession No. NP_004086.1) biotinylated at the N-terminus. After 30 minutes at 37° C., the peptide phosphorylation by ERK5 was measured by addition of FRET reagents consisting of 12.5 µg/ml Streptavidin-XL665, 1 nM Anti-P-4EBP1 antibody and 300 ng/ml Anti-rabbit-K antibody. Following 90 minutes at room temperature fluorescent signals were read on the Pherastar FSX multimod detector from BMG Labtech (Exc° 340 nm, Em1 620 nm, Em2 665 nm). The IC50 values represent the concentration of compound which inhibits the measurable fluorescence signal by […] as compared to the DMSO only control.

T1 sequence (Q13164 whole entry): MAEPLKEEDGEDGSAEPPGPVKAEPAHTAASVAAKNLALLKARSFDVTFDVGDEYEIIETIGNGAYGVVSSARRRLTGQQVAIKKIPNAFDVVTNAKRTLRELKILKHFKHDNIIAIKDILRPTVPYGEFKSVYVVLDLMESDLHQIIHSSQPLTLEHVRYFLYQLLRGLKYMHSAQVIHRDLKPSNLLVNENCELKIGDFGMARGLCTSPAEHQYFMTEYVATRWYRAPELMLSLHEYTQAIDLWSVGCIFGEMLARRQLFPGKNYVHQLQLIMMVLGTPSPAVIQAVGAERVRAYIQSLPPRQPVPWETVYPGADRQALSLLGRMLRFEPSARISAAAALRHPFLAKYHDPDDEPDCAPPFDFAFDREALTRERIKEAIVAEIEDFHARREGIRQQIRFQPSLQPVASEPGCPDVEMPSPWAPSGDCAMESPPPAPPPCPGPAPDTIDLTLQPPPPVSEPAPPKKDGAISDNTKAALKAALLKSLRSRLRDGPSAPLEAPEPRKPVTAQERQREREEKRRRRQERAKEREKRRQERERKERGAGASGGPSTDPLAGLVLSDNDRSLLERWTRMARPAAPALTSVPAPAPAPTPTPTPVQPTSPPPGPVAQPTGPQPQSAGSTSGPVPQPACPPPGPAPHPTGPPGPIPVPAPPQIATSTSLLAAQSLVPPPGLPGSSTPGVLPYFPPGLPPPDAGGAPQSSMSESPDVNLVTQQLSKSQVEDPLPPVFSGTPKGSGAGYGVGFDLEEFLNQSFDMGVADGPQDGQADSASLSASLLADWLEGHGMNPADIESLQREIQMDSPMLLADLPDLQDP

Row | SMILES | IC50 (Cellular ERK5 Activity) | IC50 [1]
1 | O=C(c1ccc(OC(F)(F)F)cc1)N1CCC(c2c[nH]c3ncc(C4CCOCC4)nc23)C1 (racemic) [Example 25, (rac)-[3-(2-Tetrahydropyran-4-yl-5H-pyrrolo[2,3-b]pyrazin-7-yl)pyrrolidin-1-yl]-[4-(trifluoromethoxy)phenyl]methanone] | 230 nM | –
2 | O=C(c1ccc(OC(F)(F)F)cc1)N1CCC(c2c[nH]c3ncc(NC4CCOC4)nc23)CC1 (racemic) [Example 36, (rac)-[4-[2-[[tetrahydrofuran-3-yl]amino]-5H-pyrrolo[2,3-b]pyrazin-7-yl]-1-piperidyl]-[4-(trifluoromethoxy)phenyl]methanone] | 124 nM | 291 nM
3 | Nc1cc(S(F)(F)(F)(F)F)ccc1C(=O)N1CCC(c2c[nH]c3ncc(C4CCOCC4)nc23)C1 (racemic) [Example 43, (rac)-[2-amino-4-(pentafluoro-λ^6-sulfanyl)phenyl]-[3-(2-tetrahydropyran-4-yl-5H-pyrrolo[2,3-b]pyrazin-7-yl)pyrrolidin-1-yl]methanone] | 357 nM | 9720 nM
4 | O=C(c1ccc(OC(F)(F)F)cc1)N1CCC(c2c[nH]c3ncc(NC4CCOC4)nc23)CC1 (single isomer, unassigned; isomer 1) [Example 32, [4-[2-[[tetrahydrofuran-3-yl]amino]-5H-pyrrolo[2,3-b]pyrazin-7-yl]-1-piperidyl]-[4-(trifluoromethoxy)phenyl]methanone, Isomer 1] | 79 nM | 361 nM
5 | O=C(c1ccc(OC(F)(F)F)cc1)N1CCC(c2c[nH]c3ncc(NC4CCOC4)nc23)CC1 (single isomer, unassigned; isomer 2) [Example 33, [4-[2-[[tetrahydrofuran-3-yl]amino]-5H-pyrrolo[2,3-b]pyrazin-7-yl]-1-piperidyl]-[4-(trifluoromethoxy)phenyl]methanone, Isomer 2] | 126 nM | 335 nM
6 | CN1CCC(c2cnc3[nH]cc(C4CCN(C(=O)c5ccc(OC(F)(F)F)cc5N)CC4)c3n2)CC1 [Example 1, [2-Amino-4-(trifluoromethoxy)phenyl]-[4-[2-(1-methyl-4-piperidyl)-5H-pyrrolo[2,3-b]pyrazin-7-yl]-1-piperidyl]methanone] | 20 nM | 17 nM
7 | O=C(c1ccc(OC(F)(F)F)cc1)N1CCC(c2c[nH]c3ncc(C4CCOCC4)nc23)CC1 [Example 3, [4-(2-Tetrahydropyran-4-yl-5H-pyrrolo[2,3-b]pyrazin-7-yl)-1-piperidyl]-[4-(trifluoromethoxy)phenyl]methanone] | 41 nM | 172 nM
8 | CN1CCC(c2cnc3[nH]cc(C4CCN(C(=O)c5ccc(OC(F)(F)F)cc5)CC4)c3n2)CC1 [Example 4, [4-[2-(1-Methyl-4-piperidyl)-5H-pyrrolo[2,3-b]pyrazin-7-yl]-1-piperidyl]-[4-(trifluoromethoxy)phenyl]methanone] | 60 nM | 66 nM
9 | COCCCc1cnc2[nH]cc(C3CCN(C(=O)c4ccc(OC(F)(F)F)cc4)CC3)c2n1 [Example 6, [4-[2-(3-Methoxypropyl)-5H-pyrrolo[2,3-b]pyrazin-7-yl]-1-piperidyl]-[4-(trifluoromethoxy)phenyl]methanone] | 118 nM | 403 nM
10 | COCCCc1cnc2[nH]cc(C3CCN(C(=O)c4ccc(OC(F)(F)F)cc4N)CC3)c2n1 [Example 7, [2-Amino-4-(trifluoromethoxy)phenyl]-[4-[2-(3-methoxypropyl)-5H-pyrrolo[2,3-b]pyrazin-7-yl]-1-piperidyl]methanone] | 56 nM | 169 nM
11 | O=C(c1ccc(OC(F)(F)F)cc1)N1CCC(c2c[nH]c3ncc(C4CCCCC4)nc23)CC1 [Example 8, [4-(2-Cyclohexyl-5H-pyrrolo[2,3-b]pyrazin-7-yl)-1-piperidyl]-[4-(trifluoromethoxy)phenyl]methanone] | 226 nM | 25900 nM

Results, then the molecule that gave them:

Row | IC50 (Cellular ERK5 Activity) | IC50 [1] | SMILES
12 | 88 nM | 212 nM | O=C(c1ccc(OC(F)(F)F)cc1)N1CCC(c2c[nH]c3ncc(C4CCOC4)nc23)CC1 (racemic) [Example 5, (rac)-[4-(2-Tetrahydrofuran-3-yl-5H-pyrrolo[2,3-b]pyrazin-7-yl)-1-piperidyl]-[4-(trifluoromethoxy)phenyl]methanone]
13 | – | 130 nM | Nc1cc(OC(F)(F)F)ccc1C(=O)N1CCC(c2c[nH]c3ncc(C4CCOC4)nc23)CC1 (racemic) [Example 12, (rac)-[2-Amino-4-(trifluoromethoxy)phenyl]-[4-(2-tetrahydrofuran-3-yl-5H-pyrrolo[2,3-b]pyrazin-7-yl)-1-piperidyl]methanone]
14 | 261 nM | – | Nc1cc(OC(F)(F)F)ccc1C(=O)N1CCC(c2c[nH]c3ncc(C4CCOCC4)nc23)C1 (racemic) [Example 24, (rac)-[2-Amino-4-(trifluoromethoxy)phenyl]-[3-(2-tetrahydropyran-4-yl-5H-pyrrolo[2,3-b]pyrazin-7-yl)pyrrolidine-1-yl]methanone]
15 | 60 nM | 94 nM | Nc1cc(OC(F)(F)F)ccc1C(=O)N1CCC(c2c[nH]c3ncc(NC4CCOC4)nc23)CC1 (racemic) [Example 37, (rac)-[2-amino-4-(trifluoromethoxy)phenyl]-[4-[2-[[tetrahydrofuran-3-yl]amino]-5H-pyrrolo[2,3-b]pyrazin-7-yl]-1-piperidyl]methanone]
16 | 49 nM | 93 nM | Nc1cc(OC(F)(F)F)ccc1C(=O)N1CCC(c2c[nH]c3ncc(C4CCOC4)nc23)CC1 (single isomer, unassigned) [Example 13, [2-Amino-4-(trifluoromethoxy)phenyl]-[4-(2-tetrahydrofuran-3-yl-5H-pyrrolo[2,3-b]pyrazin-7-yl)-1-piperidyl]methanone]
17 | 46 nM | 99 nM | Nc1cc(OC(F)(F)F)ccc1C(=O)N1CCC(c2c[nH]c3ncc(C4CCOC4)nc23)CC1 (single isomer, unassigned) [Example 14, [2-Amino-4-(trifluoromethoxy)phenyl]-[4-(2-tetrahydrofuran-3-yl-5H-pyrrolo[2,3-b]pyrazin-7-yl)-1-piperidyl]methanone]
18 | > 10000 nM | 94 nM | Nc1cc(OC(F)(F)F)ccc1C(=O)N1CCC(c2c[nH]c3ncc(NC4CCOC4)nc23)CC1 (single isomer, unassigned; isomer 1) [Example 34, [2-amino-4-(trifluoromethoxy)phenyl]-[4-[2-[[tetrahydrofuran-3-yl]amino]-5H-pyrrolo[2,3-b]pyrazin-7-yl]-1-piperidyl]methanone, Isomer 1]
19 | 246 nM | 131 nM | Nc1cc(OC(F)(F)F)ccc1C(=O)N1CCC(c2c[nH]c3ncc(NC4CCOC4)nc23)CC1 (single isomer, unassigned; isomer 2) [Example 35, [2-amino-4-(trifluoromethoxy)phenyl]-[4-[2-[[tetrahydrofuran-3-yl]amino]-5H-pyrrolo[2,3-b]pyrazin-7-yl]-1-piperidyl]methanone, Isomer 2]
20 | 15 nM | 37 nM | Nc1cc(OC(F)(F)F)ccc1C(=O)N1CCC(c2c[nH]c3ncc(C4CCOCC4)nc23)CC1 [Example 2, [2-Amino-4-(trifluoromethoxy)phenyl]-[4-(2-tetrahydropyran-4-yl-5H-pyrrolo[2,3-b]pyrazin-7-yl)-1-piperidyl]methanone]
21 | 156 nM | 2150 nM | Nc1cc(OC(F)(F)F)ccc1C(=O)N1CCC(c2c[nH]c3ncc(C4CCCCC4)nc23)CC1 [Example 9, [2-Amino-4-(trifluoromethoxy)phenyl]-[4-(2-cyclohexyl-5H-pyrrolo[2,3-b]pyrazin-7-yl)-1-piperidyl]methanone]
22 | – | 39 nM | Nc1cc(OC(F)(F)F)ccc1C(=O)N1CCC(c2c[nH]c3ncc([C@H]4CC[C@H](O)CC4)nc23)CC1 [Example 30, trans-[2-amino-4-(trifluoromethoxy)phenyl]-[4-[2-(4-hydroxycyclohexyl)-5H-pyrrolo[2,3-b]pyrazin-7-yl]-1-piperidyl]methanone]

From US20260308157A1, “Pyrrolopyrazine Compounds, Preparation Thereof and Therapeutic Uses Thereof” (Sanofi, priority 2023, published 2026)
